Patent publication US11053204B2, “Pyrimidinyloxy benzene derivatives as herbicides” (FMC Corporation, priority 2015, dated 2021)

Assays:
Assay type in all cases: in vivo
[1] = test system: surinam grass (Brachiaria decumbens); assay: Test C preemergence, plant response rating
soybean (Glycine max) = assay: Test C postemergence, plant response rating; details: for Soybean plant response rating: scale 0 to 100 (0 no effect, 100 complete control)
Procedure, shortened: (§1)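 Greenhouse plants rated visually against untreated controls 13–15 d after treatment, scale 0 = no effect to 100 = complete control. Postemergence sprays went onto potted plants 2–18 cm tall (1–4 leaves); preemergence sprays onto soil freshly sown in loam–sand or silt loam, chemicals formulated in non-phytotoxic solvent with surfactant.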

[2] = test system: foxtail, giant (giant foxtail, Setaria faberii); assay: Test C postemergence, plant response rating; details: for Foxtail, Giant plant response rating: scale 0 to 100 (0 no effect, 100 complete control)
Procedure, shortened: as §1

[3] = test system: galium (catchweed bedstraw, Galium aparine); assay: Test C postemergence, plant response rating; details: for Galium plant response rating: scale 0 to 100 (0 no effect, 100 complete control)
Procedure, shortened: as §1

[4] = test system: chickweed (common chickweed, Stellaria media); assay: Test C postemergence, plant response rating; details: for Chickweed plant response rating: scale 0 to 100 (0 no effect, 100 complete control)
Procedure, shortened: as §1

[5] = test system: ragweed (common ragweed, Ambrosia elatior); assay: Test C postemergence, plant response rating; details: for Ragweed plant response rating: scale 0 to 100 (0 no effect, 100 complete control)
Procedure, shortened: as §1

kochia (Kochia scoparia) = assay: Test C postemergence, plant response rating; details: for Kochia plant response rating: scale 0 to 100 (0 no effect, 100 complete control)
Procedure, shortened: as §1

[6] = test system: blackgrass (Alopecurus myosuroides); assay: Test C postemergence, plant response rating; details: for Plant response rating, Blackgrass: scale 0 to 100; for Blackgrass plant response rating: scale 0 to 100 (0 no effect, 100 complete control)
Procedure, shortened: as §1

[7] = test system: waterhemp (common waterhemp, Amaranthus rudis); assay: Test C postemergence, plant response rating
Procedure, shortened: as §1

[8] = test system: oat, wild (wild oat Avena fatua); assay: Test C postemergence, plant response rating; details: for Oat, Wild plant response rating: scale 0 to 100 (0 no effect, 100 complete control)
Procedure, shortened: as §1

[9] = test system: nutsedge, yellow (yellow nutsedge, Cyperus esculentus); assay: Test C postemergence, plant response rating; details: for Nutsedge, Yellow plant response rating: scale 0 to 100 (0 no effect, 100 complete control)
Procedure, shortened: as §1

[10] = test system: lambsquarters (Chenopodium album); assay: Test C postemergence, plant response rating; details: for Lambsquarters plant response rating: scale 0 to 100 (0 no effect, 100 complete control)
Procedure, shortened: as §1

[11] = test system: velvetleaf (Abutilon theophrasti); assay: Test C postemergence, plant response rating
Procedure, shortened: as §1

[12] = test system: morningglory (Ipomoea coccinea); assay: Test C postemergence, plant response rating; details: for Morningglory plant response rating: scale 0 to 100 (0 no effect, 100 complete control)
Procedure, shortened: as §1

[13] = test system: wheat (winter wheat, Triticum aestivum); assay: Test C postemergence, plant response rating
Procedure, shortened: as §1

corn (Zea mays) = assay: Test C postemergence, plant response rating; details: for Corn plant response rating: scale 0 to 100 (0 no effect, 100 complete control)
Procedure, shortened: as §1

[14] = test system: oilseed rape (Brassica napus); assay: Test C postemergence, plant response rating; details: for Oilseed Rape plant response rating: scale 0 to 100 (0 no effect, 100 complete control)
Procedure, shortened: as §1

[15] = test system: wild poinsettia (Euphorbia heterophylla); assay: Test C preemergence, plant response rating
[16] = test system: windgrass (Apera spica-venti); assay: Test C preemergence, plant response rating
[17] = test system: oat, wild (wild oat Avena fatua); assay: Test C preemergence, plant response rating
[18] = test system: pigweed, palmer (palmer pigweed, Amaranthus palmeri); assay: Test C preemergence, plant response rating
[19] = 125 g ai/ha, scale 0 to 100 (0 no effect, 100 complete control)

CCCCC(=O)c1c(Oc2ncc(Cl)cn2)cccc1C(F)(F)F [Compound 130]
Plant response rating, Surinam Grass ([1]; 31 g ai/ha, scale 0 to 100): 50
Plant response rating, Surinam Grass ([1]; 62 g ai/ha, scale 0 to 100): 65
Plant response rating, Surinam Grass ([1]; 125 g ai/ha, scale of 0 to 100): 80
Plant response rating, Soybean (soybean (Glycine max); 16 g ai/ha, scale of 0 to 100): 40
Plant response rating, Soybean (soybean (Glycine max); 31 g ai/ha, scale 0 to 100): 55
Soybean plant response rating (soybean (Glycine max); 62 g ai/ha): 75
Soybean plant response rating (soybean (Glycine max); 125 g ai/ha): 95
Plant response rating, Foxtail, Giant ([2]; 16 g ai/ha, scale of 0 to 100): 10
Plant response rating, Foxtail, Giant ([2]; 31 g ai/ha, scale 0 to 100): 10
Foxtail, Giant plant response rating ([2]; 62 g ai/ha): 10
Foxtail, Giant plant response rating ([2]; 125 g ai/ha): 30
Plant response rating, Galium ([3]; 16 g ai/ha, scale of 0 to 100): 75
Plant response rating, Galium ([3]; 31 g ai/ha, scale 0 to 100): 80
Galium plant response rating ([3]; 62 g ai/ha): 85
Galium plant response rating ([3]; 125 g ai/ha): 80
Plant response rating, Chickweed ([4]; 16 g ai/ha, scale of 0 to 100): 75
Plant response rating, Chickweed ([4]; 31 g ai/ha, scale 0 to 100): 75
Chickweed plant response rating ([4]; 62 g ai/ha): 80
Chickweed plant response rating ([4]; 125 g ai/ha): 90
Plant response rating, Ragweed ([5]; 16 g ai/ha, scale of 0 to 100): 25
Plant response rating, Ragweed ([5]; 31 g ai/ha, scale 0 to 100): 45
Ragweed plant response rating ([5]; 62 g ai/ha): 55
Ragweed plant response rating ([5]; 125 g ai/ha): 50
Plant response rating, Kochia (kochia (Kochia scoparia); 16 g ai/ha, scale of 0 to 100): 80
Plant response rating, Kochia (kochia (Kochia scoparia); 31 g ai/ha, scale 0 to 100): 85
Kochia plant response rating (kochia (Kochia scoparia); 62 g ai/ha): 95
Kochia plant response rating (kochia (Kochia scoparia); 125 g ai/ha): 98
Plant response rating, Blackgrass ([6]; 16 g ai/ha): 5
Plant response rating, Blackgrass ([6]; 31 g ai/ha): 5
Blackgrass plant response rating ([6]; 62 g ai/ha): 20
Blackgrass plant response rating ([6]; 125 g ai/ha): 30
Plant response rating, Waterhemp ([7]; 16 g ai/ha, scale of 0 to 100): 65
Plant response rating, Waterhemp ([7]; 31 g ai/ha, scale 0 to 100): 75
Waterhemp plant response rating [7, 19]: 85
Plant response rating, Oat, Wild ([8]; 16 g ai/ha, scale of 0 to 100): 5
Plant response rating, Oat, Wild ([8]; 31 g ai/ha, scale 0 to 100): 10
Oat, Wild plant response rating ([8]; 62 g ai/ha): 15
Oat, Wild plant response rating ([8]; 125 g ai/ha): 15
Plant response rating, Nutsedge, Yellow ([9]; 16 g ai/ha, scale of 0 to 100): 0
Plant response rating, Nutsedge, Yellow ([9]; 31 g ai/ha, scale 0 to 100): 0
Nutsedge, Yellow plant response rating ([9]; 62 g ai/ha): 5
Nutsedge, Yellow plant response rating ([9]; 125 g ai/ha): 5
Plant response rating, Lambsquarters ([10]; 16 g ai/ha, scale of 0 to 100): 75
Plant response rating, Lambsquarters ([10]; 31 g ai/ha, scale 0 to 100): 90
Lambsquarters plant response rating ([10]; 62 g ai/ha): 85
Lambsquarters plant response rating ([10]; 125 g ai/ha): 95
Plant response rating, Velvetleaf ([11]; 16 g ai/ha, scale of 0 to 100): 25
Plant response rating, Velvetleaf ([11]; 31 g ai/ha, scale 0 to 100): 45
Velvetleaf plant response rating [11, 19]: 75
Plant response rating, Morningglory ([12]; 16 g ai/ha, scale of 0 to 100): 10
Plant response rating, Morningglory ([12]; 31 g ai/ha, scale 0 to 100): 25
Morningglory plant response rating ([12]; 62 g ai/ha): 65
Morningglory plant response rating ([12]; 125 g ai/ha): 55
Plant response rating, Wheat ([13]; 16 g ai/ha, scale of 0 to 100): 10
Plant response rating, Wheat ([13]; 31 g ai/ha, scale 0 to 100): 5
Wheat plant response rating [13, 19]: 30
Plant response rating, Corn (corn (Zea mays); 16 g ai/ha, scale of 0 to 100): 10
Plant response rating, Corn (corn (Zea mays); 31 g ai/ha, scale 0 to 100): 20
Corn plant response rating (corn (Zea mays); 62 g ai/ha): 15
Corn plant response rating (corn (Zea mays); 125 g ai/ha): 20
Plant response rating, Oilseed Rape ([14]; 16 g ai/ha, scale of 0 to 100): 70
Plant response rating, Oilseed Rape ([14]; 31 g ai/ha, scale 0 to 100): 85
Oilseed Rape plant response rating ([14]; 62 g ai/ha): 95
Oilseed Rape plant response rating ([14]; 125 g ai/ha): 98
Plant response rating, Poinsettia, Wild ([15]; 31 g ai/ha, scale 0 to 100): 0
Plant response rating, Poinsettia, Wild ([15]; 62 g ai/ha, scale 0 to 100): 10
Plant response rating, Poinsettia, Wild ([15]; 125 g ai/ha, scale of 0 to 100): 45
Plant response rating, Windgrass ([16]; 31 g ai/ha, scale 0 to 100): 70
Plant response rating, Windgrass ([16]; 62 g ai/ha, scale 0 to 100): 100
Plant response rating, Windgrass ([16]; 125 g ai/ha, scale of 0 to 100): 100
Plant response rating, Oat, Wild ([17]; 31 g ai/ha, scale 0 to 100): 15
Plant response rating, Oat, Wild ([17]; 62 g ai/ha, scale 0 to 100): 35
Plant response rating, Oat, Wild ([17]; 125 g ai/ha, scale of 0 to 100): 60
Plant response rating, Pigweed, Palmer ([18]; 31 g ai/ha, scale 0 to 100): 75
Plant response rating, Pigweed, Palmer ([18]; 62 g ai/ha, scale 0 to 100): 100
Plant response rating, Pigweed, Palmer ([18]; 125 g ai/ha, scale of 0 to 100): 85
